Test results reported in ChEMBL document CHEMBL4622858, “Synthesis of morpholine derivatives using the Castagnoli-Cushman reaction as BACE1 inhibitors: Unexpected binding activity of cyclic thioamides” (Bioorg Med Chem Lett, 2020).

Experiments:
Beta-secretase 1 [1] = target: T1, Beta-secretase 1 (Homo sapiens, UniProt P56817); assay: Inhibition of human BACE1 using HiLyte Fluo488/QXL-520 peptide substrate at 10 uM by fluorescence assay
Beta-secretase 1 [2] = target: T1, Beta-secretase 1; assay: Inhibition of human BACE1 using HiLyte Fluo488/QXL-520 peptide substrate by fluorescence assay

T1 sequence (P56817 whole entry): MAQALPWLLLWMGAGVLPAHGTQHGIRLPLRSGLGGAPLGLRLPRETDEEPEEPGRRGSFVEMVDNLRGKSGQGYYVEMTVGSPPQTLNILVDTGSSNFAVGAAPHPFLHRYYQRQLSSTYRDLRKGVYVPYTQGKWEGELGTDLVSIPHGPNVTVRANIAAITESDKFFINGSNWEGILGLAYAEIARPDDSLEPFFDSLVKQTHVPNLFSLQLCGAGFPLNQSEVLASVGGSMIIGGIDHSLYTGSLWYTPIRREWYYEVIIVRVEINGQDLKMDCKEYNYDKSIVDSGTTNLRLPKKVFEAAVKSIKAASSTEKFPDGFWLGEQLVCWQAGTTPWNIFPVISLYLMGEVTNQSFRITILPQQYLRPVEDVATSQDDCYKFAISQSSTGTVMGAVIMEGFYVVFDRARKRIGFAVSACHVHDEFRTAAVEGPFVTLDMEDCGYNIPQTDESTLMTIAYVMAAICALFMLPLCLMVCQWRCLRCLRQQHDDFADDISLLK

Row | SMILES | inhibition (Beta-secretase 1 [1]) [%] | IC50 (Beta-secretase 1 [2]) [µM]
1 | COC(=O)[C@H]1OCC(=S)N[C@@H]1c1ccc(OC)c(OC)c1 | 24 | 
2 | COc1ccc([C@H]2NC(=N)CO[C@@H]2C(N)=O)cc1 | 27 | 
3 | COC(=O)[C@H]1OCC(=S)N[C@@H]1c1ccc(OC)c(Br)c1 | 26 | 
4 | COc1ccc([C@H]2NC(=N)CO[C@@H]2C(N)=O)cc1Br | 17 | 
5 | COC(=O)[C@H]1OCC(=S)N[C@@H]1c1ccc(OC)cc1 | 40 | 5.7
6 | Cc1ccc([C@H]2NC(=N)CO[C@@H]2C(N)=O)cc1 | 14 | 
7 | COc1ccc([C@H]2NC(=N)CO[C@@H]2C(N)=O)cc1OC | 10 | 
8 | COC(=O)[C@H]1OCC(=S)N[C@@H]1c1ccc(C)cc1 | 19 | 
